Values joined by “and” are separate entries in the source; they are usually repeats but may differ in a detail not shown here. Identical values can stand only once.
Legend:
MSSA ATCC 29213 = assay: Mouse tissue cage model of staphylococcal biofilm infection, MSSA (Example 4); format: in vivo, Staphylococcus aureus; settings: 24-h biofilm MSSA ATCC 29213; 11-d treatment; cages explanted day 14
Procedure: After the incubation, tubes were vortexed again and bacterial regrowth was assessed visually. […] The efficacy of treatment against adherent bacteria is expressed as the cure rate (in percent), defined as the number of cages without growth divided by the total number of cages in the individual treatment group.

[1] = system: S. aureus ATCC 43300 (MRSA); assay: Mouse tissue cage model of MRSA infection, 11-day treatment at lower dosage (Example 3); format: in vivo, Staphylococcus aureus; settings: for Cure rate (%) / adherent bacteria reduction from baseline (mean±SD): 24-h biofilm; for Cure rate (%) / adherent bacteria reduction from baseline (mean±SD) / day on which bactericidal effect (mean reduction of bacterial load by ≥3 Log10) on planktonic bacteria was exerted / Planktonic day 3 Δlog from baseline (individual animal) / Planktonic day 6 Δlog from baseline (individual animal) / Planktonic day 9 Δlog from baseline (individual animal) / Planktonic day 11 Δlog from baseline (individual animal): 11-day treatment; for Cure rate (%): cages without growth / total cages; for adherent bacteria reduction from baseline (mean±SD): n=6, given as positive reduction; for Adherent Δlog from baseline (individual animal) / Adherent Mean: medium after sonication of explanted tissue cages, day 14 vs day 1; for Adherent Mean: group mean; for day on which bactericidal effect (mean reduction of bacterial load by ≥3 Log10) on planktonic bacteria was exerted: planktonic bacteria in tissue cage fluid; for Planktonic day 3 Δlog from baseline (individual animal) / Planktonic day 6 Δlog from baseline (individual animal) / Planktonic day 9 Δlog from baseline (individual animal) / Planktonic day 11 Δlog from baseline (individual animal) / Planktonic day 14 Δlog from baseline (individual animal) / Planktonic day 3 Mean / Planktonic day 6 Mean / Planktonic day 9 Mean / Planktonic day 11 Mean / Planktonic day 14 Mean: tissue cage fluid; for Planktonic day 3 Δlog from baseline (individual animal) / Planktonic day 6 Δlog from baseline (individual animal) / Planktonic day 9 Δlog from baseline (individual animal) / Planktonic day 11 Δlog from baseline (individual animal): baseline day 1; for Planktonic day 14 Δlog from baseline (individual animal): 3 days after end of 11-day treatment; for Planktonic day 3 Mean / Planktonic day 6 Mean / Planktonic day 9 Mean / Planktonic day 11 Mean / Planktonic day 14 Mean: group mean Δlog from baseline
Source text: The purpose of this study was to evaluate the efficacy of Debio 1450 BES alone and in combination with Daptomycin (DAP) in the mouse tissue cage model of implant-associated infections caused by methicillin resistant Staphylococcus (S.) aureus (MRSA) at lower dosage and longer treatment duration than used in the previous study (Example 2). The efficacy against 24-h biofilm of S. aureus ATCC 43300 (MRSA) was investigated. Employing a small initial inoculum (ca. 300 CFU/cage) together with a 24-h biofilm allowed to simulate clinical settings of an acute implant infection and/or surgical debridement.
The Debio 1450 BES dose of 20 mg/kg BID reflects the most current HED of 240 mg BID obtained in the recent PK studies (50 mg/kg BID was used in Example 2 based on the previous PK analysis). […] The treatment duration of 11 days was selected to compensate lowering of the dose of Debio 1450 BES (5.5-day treatment was used in Example 2) and is in line with the prolonged antibiotic therapy applied in patients with prosthetic joint infections.
The same mouse tissue cage model was employed as described in Example 2 above. The animals received antibiotic treatment i.p. on day 1 post-infection through day 11. One group received only 5% glucose and served as infected, untreated control group (vehicle). […] Debio 1450 BES and vehicle were administered bid, and DAP was administered qdam. In the present study we investigated the efficacy of lower dosage in a prolonged treatment duration.
Five to 6 days before infection, TCF was aspirated to ascertain the sterility of implanted cages by TCF plating on blood agar plates. TCF was aspirated and plated on day 1 (before treatment) to confirm the establishment of infection. In addition, the number of bacteria in TCF was determined on day 3 (before the first injection that day), on day 6, day 9 and on day 11 (before last treatment), and on day 14 (before explantation of the cages) to evaluate the treatment efficacy against planktonic bacteria. The mouse number and bacterial count for the given cage is reported to analyse the time course of antibacterial activity of the tested drugs. The efficacy against biofilm-embedded bacteria is assessed qualitatively and quantitatively following aseptic explantation of the tissue cages 3 days after the completion of treatment. The 3 days of resting period helped to avoid the antibiotic carryover effect. Upon explantation, cages were washed twice with phosphate buffered saline (PBS) (Lot #5060914) and immediately transferred into 5 mL 0.9% NaCl (Lot #L171095). Following 30 s vortexing, sonication (3 min at 130 W), and an additional 30 s vortexing step the numbers of bacteria dispersed from biofilm was determined by plating. The sonicated cages were washed once with PBS, transferred into 5 mL TSB (Lot #0286463), and incubated for 48 h at 37° C., with an additional vortexing step after 24 h of incubation. After the incubation, tubes were vortexed again and bacterial regrowth was assessed visually. In addition, 100 μL of each culture was plated on blood agar plates to ascertain the regrowth. A positive culture is defined as a treatment failure. The efficacy of treatment against adherent bacteria is expressed as the cure rate (in percent), defined as the number of cages without growth divided by the total number of cages in the individual treatment group. In addition, single colonies from the re-growth plates were used to achieve the 0.5 McFarland. 100 μl of each 0.5 McFarland culture was plated on MHA plates containing the antibiotics corresponding to the treatment used (note: bacteria from mice treated with Debio 1450 will be plated on plates containing Debio 1452).

ATCC 43300 MRSA strain = assay: Induction of resistance studies, ex vivo bacterial exposure to 4×MIC (Example 1); format: cell-based, Staphylococcus aureus; settings: ex vivo exposure to 4×MIC; single and combination therapy; 24h or 72h biofilm
Procedure: Two experimental settings were used in this study to evaluate the treatment efficacies against early (24h) and/or mature (72h) MRSA catheter formed biofilms. Briefly, mice were anaesthetised by an IP injection of about 120 μl a mix of ketamine (50 mg/kg) and xylazine (10 mg/kg) (4 mL ketamine+2 mL xylazine+10 mL saline). Flank on the right side was shaved and then disinfected by 3 consecutive applications of betadine. A cutaneous and then subcutaneous (SC) incisions of 0.2 cm were made under sterile conditions and a 1 cm segment of polyurethane catheter (Ref. No. ES-04730 Arrow international) cut into 2 longitudinal fragments was inserted SC (into the incision and then pushed further under the skin, about 2 cm away from the incision). The inoculation was done simultaneously by placing 50 μl of the bacterial culture onto the catheter (10^6 CFU of ATCC 43300 MRSA strain). The incision was stitched up and disinfected. The day of the infection was referred to as Day0 (D0). To ensure that the study was conducted in sterile conditions from the start to the end of the experiment, non-infected mice (sentinel group) were included. […] In both 24 h and 72h biofilm settings, two groups of infected non-treated animals (Vehicle controls) were evaluated for bacterial counts: at baseline (24h or D1 [for 24-h biofilm] and 72h or D3 [for 72-h biofilm] post infection, i.e. time points corresponding to treatments initiations) and at the termination of treatment duration (D6 [for 24-h biofilm] and D8 [for 72-h biofilm] post infection). Post treatment CFUs were counted on D6 or D8 and results were expressed as Log10 CFU/g of catheter (Mean±SEM). The limit of detection was determined as being 1 Log10 CFU/g of catheter. Changes of CFU/g of catheter (Δ Log10) from the baseline (D1 or D3 for 24-h and 72-h biofilm, respectively) and cure rates (corresponding to the percentage of mice without catheter-associated bacteria within a given treatment group) were also calculated. In vivo induction of antibiotic-resistant bacteria was analysed for all tested antibiotics.

SMILES | Cure rate (%) (MSSA ATCC 29213) | Cure rate (%) [1] | adherent bacteria reduction from baseline (mean±SD) [1] | Adherent Mean [1] | day on which bactericidal effect (mean reduction of bacterial load by ≥3 Log10) on planktonic bacteria was exerted [1] | Planktonic day 3 Mean [1] | Planktonic day 6 Mean [1] | Planktonic day 9 Mean [1] | Planktonic day 11 Mean [1] | Planktonic day 14 Mean [1] | further results
Cc1c(CN(C)C(=O)/C=C/c2cnc3c(c2)CCC(=O)N3COP(=O)(O)O)oc2ccccc12 [Debio 1450, {6-[(1E)-3-{methyl [(3-methyl-1-benzofuran-2-yl)methyl]amino}-3-oxoprop-1-en-1-yl]-2-oxo-3,4-dihydro-1,8-naphthyridin-1 (2H)-yl} methyl dihydrogen phosphate] | 14.3% | 83% | 4.35±2.5 log 10 CFU/mL | −4 log 10 CFU/mL | 6 day | −3 Log10 | −3.50 Log10 | −4.10 Log10 | −4.10 Log10 | −3 Log10 | Adherent Δlog from baseline (individual animal) [1]: −4.2 log 10 CFU/mL (2×) and 0.43 log 10 CFU/mL and −6 log 10 CFU/mL (3×); Planktonic day 3 Δlog from baseline (individual animal) [1]: −1.46 Log10 and −3.68 Log10 and −2.22 Log10 and −3.33 Log10 and −3.03 Log10 and −2.37 Log10; Planktonic day 6 Δlog from baseline (individual animal) [1]: −3.1 Log10 and −3.7 Log10 (2×) and −4.2 Log10 and −3.3 Log10 and −3 Log10; Planktonic day 9 Δlog from baseline (individual animal) [1]: −3.1 Log10 and −3.7 Log10 and −6.2 Log10 and −3.3 Log10 and −3 Log10 and −5.3 Log10; Planktonic day 11 Δlog from baseline (individual animal) [1]: −3.1 Log10 and −3.7 Log10 and −6.2 Log10 and −3.3 Log10 and −3 Log10 and −5.3 Log10; Planktonic day 14 Δlog from baseline (individual animal) [1]: −3.1 Log10 and −3.7 Log10 and −0.2 Log10 and −3.3 Log10 and −3 Log10 and −5.3 Log10
CCCCCCCCCC(=O)N[C@@H](Cc1c[nH]c2ccccc12)C(=O)N[C@H](CC(N)=O)C(=O)N[C@@H](CC(=O)O)C(=O)N[C@@H]1C(=O)NCC(=O)N[C@@H](CCCN)C(=O)N[C@@H](CC(=O)O)C(=O)N[C@H](C)C(=O)N[C@@H](CC(=O)O)C(=O)NCC(=O)N[C@H](CO)C(=O)N[C@@H]([C@H](C)CC(=O)O)C(=O)N[C@@H](CC(=O)c2ccccc2N)C(=O)O[C@@H]1C [Daptomycin] |  | 50% | 3.15±2.74 log 10 CFU/mL | −3 log 10 CFU/mL | 6 day | −3 Log10 | −3.33 Log10 | −3.9 Log10 | −3.73 Log10 | −2 Log10 | emergence of resistant mutants (ATCC 43300 MRSA strain): no emergence of resistant mutants; Adherent Δlog from baseline (individual animal) ([1]; listed as DAP): −4.2 log 10 CFU/mL and −0.3 log 10 CFU/mL and 0.24 log 10 CFU/mL and −6 log 10 CFU/mL (2×) and −2.5 log 10 CFU/mL; Planktonic day 3 Δlog from baseline (individual animal) ([1]; listed as DAP): −2.56 Log10 and −2.18 Log10 and −3.12 Log10 and −2.06 Log10 and −3.41 Log10 and −3.62 Log10; Planktonic day 6 Δlog from baseline (individual animal) ([1]; listed as DAP): −2.7 Log10 and −3.5 Log10 (2×) and −3.4 Log10 (2×) and −3.6 Log10; Planktonic day 9 Δlog from baseline (individual animal) ([1]; listed as DAP): −4.6 Log10 and −5.5 Log10 and −2.7 Log10 and −3.4 Log10 and −3.6 Log10 (2×); Planktonic day 11 Δlog from baseline (individual animal) ([1]; listed as DAP): −4.6 Log10 and −2.9 Log10 and −2.70 Log10 and −3.4 Log10 and −5.2 Log10 and −3.6 Log10; Planktonic day 14 Δlog from baseline (individual animal) ([1]; listed as DAP): −4.6 Log10 and −1.1 Log10 and −1.5 Log10 and −3.4 Log10 and −0.6 Log10 and −3.6 Log10
CO[C@H]1/C=C/O[C@@]2(C)Oc3c(C)c(O)c4c(O)c(c(/C=N/N5CCN(C)CC5)c(O)c4c3C2=O)NC(=O)/C(C)=C\C=C\[C@H](C)[C@H](O)[C@@H](C)[C@@H](O)[C@@H](C)[C@H](OC(C)=O)[C@@H]1C [Rifampicin] | 100% |  |  |  |  |  |  |  |  |  | 

From US12414958B2, “Medicament and use thereof for treating bacterial infections involving biofilm” (Debiopharm International S.A., priority 2019, dated 2025)
